Bridge positions count the residues as written; N and C are the ends. Square brackets hold non-standard residues; d marks the D form. Peptide text beside a SMILES is read from it. Phe(3,4-Cl2) = N[C@@H](Cc1ccc(Cl)c(Cl)c1)C(=O)O; Bip = N[C@@H](Cc1ccc(-c2ccccc2)cc1)C(=O)O; Phe(3-F) = N[C@@H](Cc1cccc(F)c1)C(=O)O; NMeF = CN[C@@H](Cc1ccccc1)C(=O)O; NMeE = CN[C@@H](CCC(=O)O)C(=O)O; NMeA = CN[C@@H](C)C(=O)O
Target: human PCSK9 (Homo sapiens, UniProt Q8NBP7)
Experiment: PCSK9 ligand binding assay (TR-FRET): interference with binding of human PCSK9 to human LDLR
Settings: for Maximum % inhibition: PCSK9 FRET assay, efficacy (Amax), 0% = DMSO, 100% = 1 uM unlabeled human PCSK9; for IC50: TR-FRET, Human PCSK9 Alexa Fluor 647 and Human LDLR extracellular domain-Europium Kryptate
Description: The activity of cyclic polypeptides according to the disclosure as PCSK9 can be assessed using a time resolved fluorescence resonance energy transfer (TR-FRET) assay. This time resolved fluorescence resonance energy transfer (TR-FRET) assay measures the ability of a cyclic polypeptides of the disclosure to interfere with the binding of human PCSK9 to human LDLR, providing measures of both potency (IC50) and efficacy (Amax).
Solutions of varying concentrations are prepared by diluting a cyclic polypeptide of the disclosure in dimethylsulfoxide (DMSO) and the resulting solutions are pipetted into a plate. DMSO is used as a negative control. An intermediate plate is prepared in by transferring a known amount of each polypeptide solution and of the control from the compound plate into a corresponding well containing assay buffer and mixing thoroughly. A third plate is then prepared to be used for the assay by adding Human PCSK9 Alexa Fluor 647, followed by a known amount of each solution from the intermediate plate. Unlabeled human PCSK9 in assay buffer containing DMSO is used as a positive control for the assay. Following incubation, Human LDLR extracellular domain-Europium Kryptate is added to each well of the assay plate and the resulting mixture is incubated for an additional period of time. The TR-FRET signal is measured and the FRET ratio (FRET/Europium) is used to calculate the IC50 and Amax of the cyclic polypeptides.
The PCSK9 binding of the cyclic polypeptides of the disclosure were measured using a time resolved fluorescence resonance energy transfer (TR-FRET) assay. This time resolved fluorescence resonance energy transfer (TR-FRET) assay measures the ability of a cyclic polypeptide of the disclosure to interfere with the binding of human PCSK9 to human LDLR, providing measures of both potency (IC50) and efficacy (Amax).
• Human PCSK9 • Human PCSK9 Alexa Fluor 647 • Human LDLR extracellular domain-Europium Kryptate • Proxi plate-low volume assay plate (PerkinElmer #6008280) • Greiner V-bottom (Greiner BioOne #781280) • Assay Buffer • 20 mM HEPES, pH 7.5 • 150 mM NaCl • 1 mM CaCl2 • 0.01% v/v Tween20 • 0.01% w/v BSA
A master compound plate was prepared in a Greiner V bottom plate by diluting cyclic polypeptides of the disclosure in dimethylsulfoxide to the correct concentration for the desired top concentration based on the desired final concentration: for a 30 uM final concentration the master plate concentration is 1.5 mM (68 uL DMSO+12 uL 10 mM of a cyclic polypeptide of the disclosure), for a 10 uM final concentration the master plate concentration is 0.5 mM (76 uL DMSO+4 uL 10 mM of a cyclic polypeptide of the disclosure), for a 3 uM final concentration the master plate concentration is 150 uM (69 uL DMSO+1 uL 10 mM a cyclic peptide of the disclosure). These solutions were pipetted into columns 1 and 11 of the compound plate. Threefold serial dilutions were generated in columns 2-10 and 12-20 of the compound plate by transferring 10 uL into 20 μL of DMSO. Columns 21 and 22 of the compound plate were negative controls containing DMSO alone.
An intermediate plate was generated in a Greiner V bottom plate by transferring 8 uL from each well of the master plate into a corresponding well containing 92 μL of assay buffer and mixing thoroughly.
A Proxi plate-low volume assay plate was used for the assay. To all wells of the plate was added 10 μL of 16 nM Human PCSK9 Alexa Fluor 647, followed by 5 uL from the intermediate plate. […] Following a 30 minute incubation, 5 μL of 4 nM Human LDLR extracellular domain-Europium Kryptate was added and the mixture was incubated for an additional 2 hours.
The TR-FRET signal was measured on an EnVision or PheraStar instrument with a […] delay, 330 nm excitation and 665 nm emission (FRET), and 330 nm excitation and 615 nm (Europium). The FRET ratio (FRET/Europium) was used for calculations. […]

human PCSK9, sequence (Q8NBP7 153-692): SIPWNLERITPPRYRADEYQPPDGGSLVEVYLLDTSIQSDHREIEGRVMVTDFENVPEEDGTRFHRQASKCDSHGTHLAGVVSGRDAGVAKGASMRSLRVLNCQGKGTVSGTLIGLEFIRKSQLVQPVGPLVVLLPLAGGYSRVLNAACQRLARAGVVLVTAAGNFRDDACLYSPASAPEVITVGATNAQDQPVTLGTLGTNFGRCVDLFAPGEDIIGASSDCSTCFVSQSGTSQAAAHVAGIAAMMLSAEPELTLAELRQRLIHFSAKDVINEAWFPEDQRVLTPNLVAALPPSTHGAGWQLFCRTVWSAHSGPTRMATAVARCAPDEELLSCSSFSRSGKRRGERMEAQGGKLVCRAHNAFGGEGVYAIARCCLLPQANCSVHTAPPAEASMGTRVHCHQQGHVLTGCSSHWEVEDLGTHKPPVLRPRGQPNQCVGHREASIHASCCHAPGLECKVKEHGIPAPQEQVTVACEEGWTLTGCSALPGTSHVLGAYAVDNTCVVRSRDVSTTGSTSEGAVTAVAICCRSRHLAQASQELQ
human PCSK9, sequence (Q8NBP7 31-152 partner limits assumed): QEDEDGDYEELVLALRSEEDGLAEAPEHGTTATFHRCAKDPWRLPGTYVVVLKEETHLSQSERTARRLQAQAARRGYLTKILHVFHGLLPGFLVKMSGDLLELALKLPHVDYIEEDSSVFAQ

Row | Structure (SMILES) | Maximum % inhibition [%] | IC50 [nM]
1 | C[C@@H]1NC(=O)[C@H](C)N(C)C(=O)[C@H](Cc2ccc(-c3ccccc3)cc2)NC(=O)[C@H](C)N(C)C(=O)[C@H](Cc2ccccc2)NC(=O)[C@H]([C@@H](C)O)NC(=O)[C@H]([C@@H](C)O)NC(=O)[C@H](CC(N)=O)NC(=O)[C@H](CCC(=O)O)NC(=O)[C@H](Cc2ccccc2)NC(=O)CSC[C@@H](C(=O)NCC(N)=O)NC(=O)[C@@H]2CCCN2C(=O)[C@H](CO)NC1=O [Example 1-27, Ac*-F-E-N-T-T-F-(N-Me)A-B-(N-Me)A-A-S-P-C*-G-NH2] ({CH2CO}-FENTTF[NMeA][Bip][NMeA]ASPCG-NH2; thioether N-13) | 55 | 410
2 | CC(C)[C@@H]1NC(=O)[C@H](Cc2ccccc2)NC(=O)CSC[C@@H](C(=O)NCC(N)=O)NC(=O)[C@@H]2CCCN2C(=O)[C@H](CCCNC(=N)N)NC(=O)[C@H](CC(=O)O)NC(=O)[C@H](C)N(C)C(=O)[C@H](Cc2cccc(F)c2)NC(=O)[C@H](C)N(C)C(=O)[C@H](Cc2ccc(-c3ccccc3)cc2)NC(=O)[C@H]([C@@H](C)O)NC(=O)[C@H]([C@@H](C)O)NC(=O)[C@H](CO)NC1=O [Example 1-15, Ac*-F-V-S-T-T-B-(N-Me)A-(3-F)F-(N-Me)A-D-R-P-C*-G-NH2] ({CH2CO}-FVSTT[Bip][NMeA][Phe(3-F)][NMeA]DRPCG-NH2; thioether N-13) | 53 | 12
3 | CC(C)[C@@H]1NC(=O)[C@H](Cc2ccccc2)NC(=O)CSC[C@@H](C(=O)NCC(N)=O)NC(=O)[C@@H]2CCCN2C(=O)[C@H](CO)NC(=O)[C@H](CCCCN)NC(=O)[C@H](C)N(C)C(=O)[C@H](Cc2ccc(-c3ccccc3)cc2)NC(=O)[C@H](C)N(C)C(=O)[C@H](CO)NC(=O)[C@H]([C@@H](C)O)NC(=O)[C@H]([C@@H](C)O)NC(=O)[C@H](CC(=O)O)NC1=O [Example 1-7, Ac*-F-V-D-T-T-S-(N-Me)A-B-(N-Me)A-K-S-P-C*-G-NH2] ({CH2CO}-FVDTTS[NMeA][Bip][NMeA]KSPCG-NH2; thioether N-13) | 60 | 410
4 | CC(C)[C@@H]1NC(=O)[C@H](Cc2ccccc2)NC(=O)CSC[C@@H](C(N)=O)NC(=O)[C@@H]2CCCN2C(=O)[C@H](CCCNC(=N)N)NC(=O)[C@H](CC(=O)O)NC(=O)[C@H](C)N(C)C(=O)[C@H](Cc2ccc(-c3ccccc3)cc2)NC(=O)[C@H](C)N(C)C(=O)[C@H](Cc2ccc(-c3ccccc3)cc2)NC(=O)[C@H]([C@@H](C)O)NC(=O)[C@H]([C@@H](C)O)NC(=O)[C@H](CO)NC1=O [Example 2-4, Ac*-F-V-S-T-T-B-(N-Me)A-B-(N-Me)A-D-R-P-C*-NH2] ({CH2CO}-FVSTT[Bip][NMeA][Bip][NMeA]DRPC-NH2; thioether N-13) | 28 | –
5 | CC(C)[C@@H]1NC(=O)[C@H](Cc2ccccc2)NC(=O)CSC[C@@H](C(=O)NCC(N)=O)NC(=O)[C@@H]2CCCN2C(=O)[C@H](CCCNC(=N)N)NC(=O)[C@H](CC(=O)O)NC(=O)[C@H](C)N(C)C(=O)[C@H](Cc2ccc(-c3ccccc3)cc2)NC(=O)[C@H](C)N(C)C(=O)[C@H](Cc2ccc(-c3ccccc3)cc2)NC(=O)[C@H]([C@@H](C)O)NC(=O)[C@H]([C@@H](C)O)NC(=O)[C@H](CO)NC1=O [Example 1-2, Ac*-F-V-S-T-T-B-(N-Me)A-B-(N-Me)A-D-R-P-C*-G-NH2] | 41 | –
6 | CC(C)[C@@H]1NC(=O)[C@H](Cc2ccccc2)NC(=O)CSC[C@@H](C(=O)NCC(N)=O)NC(=O)[C@@H]2CCCN2C(=O)[C@H](CO)NC(=O)[C@H](CCC(=O)O)NC(=O)[C@H](C)N(C)C(=O)[C@H](Cc2ccc(-c3ccccc3)cc2)NC(=O)[C@H](C)N(C)C(=O)[C@H](Cc2ccccc2)NC(=O)[C@H]([C@@H](C)O)NC(=O)[C@H]([C@@H](C)O)NC(=O)[C@H](CC(=O)O)NC1=O [Example 1-17, Ac*-F-V-D-T-T-F-(N-Me)A-B-(N-Me)A-E-S-P-C*-G-NH2] ({CH2CO}-FVDTTF[NMeA][Bip][NMeA]ESPCG-NH2; thioether N-13) | 91 | –
7 | CCNC(=O)[C@@H]1CSCC(=O)N[C@@H](Cc2ccccc2)C(=O)N[C@@H](C(C)C)C(=O)N[C@@H](CC(N)=O)C(=O)N[C@@H]([C@@H](C)O)C(=O)N[C@@H]([C@@H](C)O)C(=O)N[C@@H](Cc2ccccc2)C(=O)N(C)[C@@H](C)C(=O)N[C@@H](Cc2ccc(-c3ccccc3)cc2)C(=O)N(C)[C@@H](C)C(=O)N(C)[C@@H](CCC(=O)O)C(=O)N[C@@H](C)C(=O)N2CCC[C@H]2C(=O)N1 [Example 3-1, 3-((3R,9S,12S,15S,18S,21S,24S,27S,30S,33S,36S,39S,44aS)-30-([1,1′-biphenyl]-4-ylmethyl)-15-(2-amino-2-oxoethyl)-9,24-dibenzyl-3-(ethylcarbamoyl)-18,21-bis((R)-1-hydroxyethyl)-12-isopropyl-26,27,32,33,35,39-hexamethyl-1,7,10,13,16,19,22,25,28,31,34,37,40-tridecaoxodotetracontahydro-6H-pyrrolo[2,1-f][1]thia[4,7,10,13,16,19,22,25,28,31,34,37,40]tridecaazacyclodotetracontin-36-yl)propanoic acid] ({CH2CO}-FVNTTF[NMeA][Bip][NMeA][NMeE]APC-NHEt; thioether N-13) | 61 | –
8 | CC(C)[C@@H]1NC(=O)[C@H](Cc2ccccc2)NC(=O)CSC[C@@H](C(=O)NCC(N)=O)NC(=O)[C@@H]2CCCN2C(=O)[C@H](CO)NC(=O)[C@H](CCC(=O)O)NC(=O)[C@H](C)N(C)C(=O)[C@H](Cc2ccc(-c3ccccc3)cc2)NC(=O)[C@H](C)N(C)C(=O)[C@H](Cc2ccc(-c3ccccc3)cc2)NC(=O)[C@H]([C@@H](C)O)NC(=O)[C@H]([C@@H](C)O)NC(=O)[C@H](CO)NC1=O [Example 1-25, Ac*-F-V-S-T-T-B-(N-Me)A-B-(N-Me)A-E-S-P-C*-G-NH2] ({CH2CO}-FVSTT[Bip][NMeA][Bip][NMeA]ESPCG-NH2; thioether N-13) | 68 | –
9 | CC(C)[C@@H]1NC(=O)[C@H](Cc2ccccc2)NC(=O)CSC[C@@H](C(=O)NCC(N)=O)NC(=O)[C@@H]2CCCN2C(=O)[C@H](CO)NC(=O)[C@H](CCC(=O)O)NC(=O)[C@H](C)N(C)C(=O)[C@H](Cc2ccc(Cl)c(Cl)c2)NC(=O)[C@H](C)N(C)C(=O)[C@H](Cc2ccc(-c3ccccc3)cc2)NC(=O)[C@H]([C@@H](C)O)NC(=O)[C@H]([C@@H](C)O)NC(=O)[C@H](CC(=O)O)NC1=O [Example 1-26, Ac*-F-V-D-T-T-B-(N-Me)A-(3,4-diCl)F-(N-Me)A-E-S-P-C*-G-NH2] ({CH2CO}-FVDTT[Bip][NMeA][Phe(3,4-Cl2)][NMeA]ESPCG-NH2; thioether N-13) | 84 | –
10 | CC(C)[C@@H]1NC(=O)[C@H](Cc2ccccc2)NC(=O)CSC[C@@H](C(=O)NCC(N)=O)NC(=O)[C@@H]2CCCN2C(=O)[C@H](CO)NC(=O)[C@H](CCC(=O)O)NC(=O)[C@H](C)N(C)C(=O)[C@H](Cc2ccc(-c3ccccc3)cc2)NC(=O)[C@H](Cc2ccccc2)N(C)C(=O)[C@H](Cc2ccc(-c3ccccc3)cc2)NC(=O)[C@H]([C@@H](C)O)NC(=O)[C@H]([C@@H](C)O)NC(=O)[C@H](CO)NC1=O [Example 1-13, Ac*-F-V-S-T-T-B-(N-Me)F-B-(N-Me)A-E-S-P-C*-G-NH2] ({CH2CO}-FVSTT[Bip][NMeF][Bip][NMeA]ESPCG-NH2; thioether N-13) | 86 | –
